Laboratory results from publication PMC4723341, “Ribonuclease H/DNA Polymerase HIV-1 Reverse Transcriptase Dual Inhibitor: Mechanistic Studies on the Allosteric Mode of Action of Isatin-Based Compound RMNC6” (PLoS ONE, 2016).

Columns and labels:
[1] = biological target: HIV-1 RT-associated RDDP activity, HIV-1 group O RT (Human immunodeficiency virus type 1 group O, UniProt Q79666); test: RDDP activity assay, HIV-1 group O RT; type: biochemical; conditions: read-out: IC50 RDDP
From the text: Recombinant HIV-1 group O RT was expressed and purified as previously described. It was obtained as a heterodimer composed of subunits of 66 and 51 kDa, with a polyhistidine tag at the C-terminus of p66. For this purpose, the RT p66 subunit encoded within a p66RTB expression vector was co-expressed with the HIV-1 protease in E. coli XL-1 Blue, and the obtained heterodimers were then purified by ionic exchange followed by chromatography on Ni2+-nitriloacetic acid agarose. The enzyme was quantified by active site titration before biochemical studies.
RNA-dependent DNA polymerase (RDDP) activity was measured as described in 25 μL volume containing 60 mM Tris-HCl buffer pH 8.1, 8 mM MgCl2, 60 mM KCl, 13 mM DTT, 2.5 μM poly(A)-oligo(dT), 100 μM dTTP, increasing concentrations of inhibitors, whose dilution were made in water, and different amounts of enzymes according to a linear range of dose-response curve: 6 ng wt RT; 30 ng K103N RT; 12 ng V106ART; 19 ng V108A RT; 1.51.5 ng Y181C RT; 45 ng Y188A RT; 15 ng Y188L RT; 30 ng E224A RT; 15 ng P225A RT; 18 ng P226A RT; 23 ng F227A RT; 15 ng L228A RT; 30 ng W229A RT; 30 ng M230A RT; 15 ng G231A RT; 15 ng N474A RT; 15 ng Y501A RT; 15 ng A502F RT; 19 ng A508V RT; 38 ng HIV-1 group O RT. After enzyme addition, the reaction mixture was incubated for 30 min at 37°C and the stopped by addition of EDTA. […]

p66/p51 HIV-1 RT = biological target: T1, p66/p51 HIV-1 RT (Human immunodeficiency virus type 1 group M subtype B, UniProt P04585); test: Thermal stability by differential scanning fluorimetry; type: binding; conditions: increasing concentrations of inhibitor
T1 construct: The 1:1 ration between the p66/p51 subunits was also verified; made in house; host or cells: E. coli M15
Description: Thermal stability assays were performed according to Nettleship et al.. […] The mixture was heated from 30 to 90°C in increments of 0.2°C. Fluorescence intensity was measured using excitation and emission wavelengths of 483 and 568 nm, respectively. Changes in protein thermal stability (ΔTm) upon inhibitor binding were analyzed by using the LightCycler 480 software. All assays were performed in triplicate.

SMILES: O=C1Nc2ccc(Cl)cc2[C@@](C#CC2CC2)(C(F)(F)F)O1 [EFV, Efavirenz, reference compound]
- IC50 [1]: 212 ± 46 nM

SMILES: Cc1sc2nc(-c3ccc(O)c(O)c3)[nH]c(=O)c2c1C [VU, 2-(3,4-dihydroxyphenyl)-5,6-dimethylthieno[2,3-d]pyrimidin-4(3H)-one]
- Tm decrease of HIV-1 RT (p66/p51 HIV-1 RT): 0.5−5.5 °C
